Drawing on ChEMBL document CHEMBL3044950, “Insecticidal activity of Paraherquamides, including paraherquamide H and paraherquamide I, two new alkaloids isolated from Penicillium cluniae” (2006), this text covers LD50 for five compounds.

This assay deals with Oncopeltus fasciatus. The experiment in a line: Insecticidal activity against Oncopeltus fasciatus fourth-instar nymphs assessed as induction of insect mortality after compound topical application measured 72 hr post compound application. In kind it is functional.
Regarding `CN1C(=O)[C@]23C[C@H]4C(C)(C)[C@@]5(C[C@@]41CN2C(=O)C[C@@]3(C)O)C(=O)Nc1c5ccc2c1OC=CC(C)(C)O2`, the LD50 is 0.91 µg.

`CN1C(=O)[C@]23C[C@H]4C(C)(C)[C@@]5(C[C@@]41C[N+]2([O-])CC[C@@]3(C)O)C(=O)Nc1c5ccc2c1OC=CC(C)(C)O2` (stereo not given in full) [N-OXIDE PARAHERQUAMIDE]: the LD50 is 7.01 µg.

Consider `CN1C(=O)[C@@]23CCCN2C[C@@]12C[C@@]1(C(=O)Nc4c1ccc1c4OC=CC(C)(C)O1)C(C)(C)[C@@H]2C3` [PARAHERQUAMIDE B], for which the LD50 was determined as 16.54 µg.

With `C[C@H]1CCN2C[C@]34C[C@@]5(C(=O)Nc6c5ccc5c6OC=CC(C)(C)O5)C(C)(C)[C@@H]3C[C@]12C(=O)N4C` [PARAHERQUAMIDE E], the LD50 was found to be 0.089 µg.

`CN1C(=O)[C@]23C[C@@H]4C(C)(C)[C@@]5(C[C@@]41CN2CC[C@@]3(C)O)C(=O)Nc1c5ccc2c1OC=CC(C)(C)O2` [Paraherquamide A]: the LD50 was found to be 0.32 µg.
